According to US12478627B2, “Irsogladine for the treatment of eosinophilic gastrointestinal diseases” (EPITHELION SCIENCE BIOTECH, S.L., priority 2019, dated 2025):
“Also recorded” adds a separate entry of the source. Where a name gives a salt, the structure may show the parent alone.

Legend:
EoE and EoGIDs = conditions: cited from earlier work
[1] = tested on: Eosinophilic Esophagitis (EoE); test: Example 2: oral Irsogladine maleate in patient three with eosinophilic esophagitis; format: in vivo, human
Protocol: […] […] […] Pain tended to increase while eating.
Endoscopic procedures were performed. Colonoscopy of the entire colon and 20 cm of the distal ileum were informed as normal and staged biopsies were taken. […] Biopsies were taken in all upper gastrointestinal tract organs examined. Both, clinical symptoms and endoscopic findings are in accordance with the clinical and endoscopic criteria of EoE (Lucendo A J, Molina-Infante J, Arias Á, et al. Guidelines on eosinophilic esophagitis: evidence-based statements and recommendations for diagnosis and management in children and adults. United European Gastroenterol J. 2017; 5 (3):335-358; Dellon E S, Liacouras C A, Molina-Infante J, et al. Updated International Consensus Diagnostic Criteria for Eosinophilic Esophagitis: Proceedings of the AGREE Conference. Gastroenterology. 2018; 155 (4):1022-1033.e10.; Lipowska AM, Kavitt R T. Current Diagnostic and Treatment Strategies for Eosinophilic Esophagitis. Gastroenterol Hepatol (N Y) 2017; 13 (9):527-535; Hirano I, Moy N, Heckman M G, Thomas C S, Gonsalves N, Achem S R. Endoscopic assessment of the oesophageal features of eosinophilic oesophagitis: validation of a novel classification and grading system. Gut. 2013; 62 (4):489-495; Muir A B, Merves J, Liacouras C A. Role of Endoscopy in Diagnosis and Management of Pediatric Eosinophilic Esophagitis. Gastrointest Endosc Clin N Am. 2016; 26 (1):187-200).
These biopsies meet the diagnostic criteria of Eosinophilic Esophagitis (Lee S, de Boer W B, Naran A, et al. More than just counting eosinophils: proximal oesophageal involvement and subepithelial sclerosis are major diagnostic criteria for eosinophilic oesophagitis. J Clin Pathol. 2010; 63 (7):644-647; Collins M H, Capocelli K, Yang G Y. Eosinophilic Gastrointestinal Disorders Pathology. Front Med (Lausanne). 2018; 4: 261).
Upon confirming the diagnosis with Eosinophilic Esophagitis, JPV was treated with 4 mg of oral Irsogladine maleate twice a day for 8 weeks, without following any other treatment such as food elimination or pharmaceutical treatments (i.e. corticosteroids or monoclonal antibodies).
Due to the therapeutic efficacy shown by Irsogladine administration, it was decided to prolong JPV treatment for an additional 24 weeks (in total 32 weeks), at the same dose, with regular telephone and presential checking of symptoms and general health. […] Esophageal biopsies were taken showing no excess of eosinophil infiltrate (<10 cells/hpf) (FIGS. 12 and 13). There was neither peripheral blood eosinophilia (315 cells mm^3) nor anemia or any biological signs of inflammation.

[2] = tested on: Eosinophilic Esophagitis (EoE); test: Example 1: oral Irsogladine maleate in patient one with active eosinophilic esophagitis; format: in vivo, human; conditions: 12 weeks
Excerpt: […] […] […] A esophageal pH-metric study, performed without PPI treatment, was informed as normal. […] Without other type of examination, JCC was empirically treated in three occasions with Budesonide.
When seen, JCC was symptomatic, with difficulties to swallow food. Because of the symptoms and clinical history, Eosinophilic Esophagitis was suspected (Lucendo A J, et al. supra; Dellon E S, et al. supra; Lipowska A M, Kavitt R T. Current Diagnostic and Treatment Strategies for Eosinophilic Esophagitis. Gastroenterol Hepatol (N Y) 2017; 13(9):527-535). […] They had neither blood nor urine biological tests abnormalities. […] An Enteral Magnetic Resonance Imaging was informed as normal, without inflammatory features, increased wall thickness or strictures in the gastro-intestinal tract.
Simultaneously, biopsies were taken in all organs examined. […] Biopsies met the histological criteria of active eosinophil esophagitis (Lee S, de Boer W B, Naran A, et al. More than just counting eosinophils: proximal oesophageal involvement and subepithelial sclerosis are major diagnostic criteria for eosinophilic oesophagitis. J Clin Pathol. 2010; 63 (7):644-647; Collins M H, Capocelli K, Yang G Y. Eosinophilic Gastrointestinal Disorders Pathology. Front Med (Lausanne). 2018; 4:261). Gastric, duodenal and upper jejunal biopsies were reported as normal.
Consequently, JJC was diagnosed with active eosinophlic esophagitis. At this point in time, JJC was treated with oral Irsogladine maleate tablets, 2 mg twice a day during 12 weeks, exempting JJC from other therapies.
Also, at end of the Irsogladine treatment, endoscopic examination was repeated using Narrow Band Imaging (NBI). This technique is able to detect minimal changes in mucosa surface.

eosinophilic jejunitis = test: Example 3: Irsogladine maleate in patient two with mild eosinophilic jejunitis; format: in vivo, human
[3] = patients with EoE or EoGIDs, literature reports
[4] = 4 mg twice a day, 8 weeks, listed as Irsogladine Maleate
[5] = 2 mg twice a day, listed as Irsogladine Maleate

## Cn1cnc([N+](=O)[O-])c1Sc1ncnc2nc[nH]c12 [Azathioprine]
EoE and EoGIDs; [3]
  side effects: not free of side effects
EoE and EoGIDs; two reports, small number of cases of EoE and EoGE
  efficacy: has shown efficacy

## Nc1nc(N)nc(-c2cc(Cl)ccc2Cl)n1 [Irsogladine maleate]
[1]; [4]
  endoscopic aspect of esophageal mucosa: Esophageal linear furrows, white plaques and a tendency to trachealization have disappeared
  histologic features of esophageal biopsy (eosinophil infiltration, microabscesses, intercellular spaces): absence of eosinophil infiltration
[1]; 32 weeks of treatment
  histological aspect of esophageal mucosa: strictly normal
[1]; 32 weeks of treatment, listed as Irsogladine Maleate
  endoscopic aspect of esophageal mucosa: normal
[2]; [5]
  endoscopic examination of esophageal mucosa (Narrow Band Imaging): Mucosa white plaques and circular trachealization disappeared
  histologic features of esophageal biopsy (eosinophil infiltration, intercellular spaces): Eosinophil infiltration has clearly reduced, and intercellular spaces are back to normal
Eosinophilic jejunitis; 4 mg twice a day, after 2 weeks
  symptoms: symptoms improved
Eosinophilic jejunitis; 4 mg twice a day, after 4 weeks
  symptoms: fully asymptomatic
Eosinophilic jejunitis; after 6 months maintenance treatment, 4 mg once a day
  symptoms: remained asymptomatic
Eosinophilic jejunitis; after 6 months treatment
  gastrointestinal upper endoscopy: considered normal; also recorded: normal looking upper jejunal mucosa
Eosinophilic jejunitis; after six months of daily treatment
  histology of upper jejunal mucosa biopsy: normal looking villi and no increase of eosinophilic infiltration

## Nc1nc(N)nc(-c2cc(Cl)ccc2Cl)n1 [Irsogladine, 6-(2,5-Dichlorophenyl)-1,3,5-triazine-2,4-diamine]
[1]; 4 mg oral twice a day, 8 weeks, before treatment more than 50 per HPF
  eosinophil counts in esophageal biopsy: less than 15 per HPF
[1]; 4 mg twice a day, 8 weeks
  disease remission: therapeutically effective to induce remission
  endoscopic aspect of esophageal mucosa: endoscopically normal
  histologic features of esophageal biopsy (eosinophil infiltration, microabscesses, intercellular spaces): negligible presence of eosinophil infiltration; also recorded: no eosinophilic microabscesses and absence of intercellular dilated spaces
  side effects: No side effects
  symptoms: completely disappeared
[1]; 4 mg twice a day, additional 24 weeks (in total 32 weeks)
  eosinophil infiltrate in esophageal biopsies: < 10 cells/hpf
[1]; 32 weeks of treatment
  endoscopic aspect of esophageal mucosa: normal looking mucosa
  side effects of long-term administration: No side effects
[2]; 2 mg twice a day
  disease remission: therapeutically effective in inducing disease remission
  endoscopic examination of esophageal mucosa (Narrow Band Imaging): esophageal mucosal furrows, white plaques and trachealization lesions had disappeared
  histologic features of esophageal biopsy (eosinophil infiltration, intercellular spaces): no dilation of intercellular spaces
  side effects: No side effects
  symptoms: Symptoms had disappeared
[2]; oral tablets 2 mg twice a day, before treatment more than 30 cells per HPF, EoE threshold 15 counts per HPF
  eosinophil counts in biopsies of the esophageal mucosa: less than 5 per HPF

## CCN(CCCCOC(=O)c1ccc(OC)c(OC)c1)C(C)Cc1ccc(OC)cc1.Cl (stereo not drawn) [Mebeverine Chlorhydrate]
Eosinophilic jejunitis; Omeprazole 20 mg twice a day and Mebeverine Chlorhydrate 200 mg twice daily, long periods, before Irsogladine
  response of symptoms to earlier symptomatic treatment: no improvement

## Benralizumab: mAb against IL-5 receptor
EoE and EoGIDs; [3]
  clinical symptoms: did not correspond with clinical improvement
  tissue eosinophil infiltrate: significant reduction

## Infliximab: Anti-TNFα mAb
EoE and EoGIDs; [3]
  clinical symptoms: have not shown efficacy
  tissue eosinophil infiltrate: have not shown efficacy

## Omalizumab: anti-IgE, targets a highly affinity receptor binding site of human IgE
EoE and EoGIDs; eosinophilic esophagitis, literature reports
  induction or maintenance of disease remission: failed to control or induce remission
EoE and EoGIDs; [3]
  clinical symptoms: variable effects
  tissue eosinophil infiltrate: non-significant decrease
